Measured values from ChEMBL document CHEMBL2074423, “Inhibition of P-glycoprotein activity and reversal of cancer multidrug resistance by Momordica charantia extract” (Cancer Chemother Pharmacol, 2004).

Target: ATP-dependent translocase ABCB1 (Homo sapiens, UniProt P08183)
Assay: TP_TRANSPORTER: drug resistance (vinblastine) in KB-V1 cells
Type: functional, cell-based

Chain of ATP-dependent translocase ABCB1 (P08183 whole entry): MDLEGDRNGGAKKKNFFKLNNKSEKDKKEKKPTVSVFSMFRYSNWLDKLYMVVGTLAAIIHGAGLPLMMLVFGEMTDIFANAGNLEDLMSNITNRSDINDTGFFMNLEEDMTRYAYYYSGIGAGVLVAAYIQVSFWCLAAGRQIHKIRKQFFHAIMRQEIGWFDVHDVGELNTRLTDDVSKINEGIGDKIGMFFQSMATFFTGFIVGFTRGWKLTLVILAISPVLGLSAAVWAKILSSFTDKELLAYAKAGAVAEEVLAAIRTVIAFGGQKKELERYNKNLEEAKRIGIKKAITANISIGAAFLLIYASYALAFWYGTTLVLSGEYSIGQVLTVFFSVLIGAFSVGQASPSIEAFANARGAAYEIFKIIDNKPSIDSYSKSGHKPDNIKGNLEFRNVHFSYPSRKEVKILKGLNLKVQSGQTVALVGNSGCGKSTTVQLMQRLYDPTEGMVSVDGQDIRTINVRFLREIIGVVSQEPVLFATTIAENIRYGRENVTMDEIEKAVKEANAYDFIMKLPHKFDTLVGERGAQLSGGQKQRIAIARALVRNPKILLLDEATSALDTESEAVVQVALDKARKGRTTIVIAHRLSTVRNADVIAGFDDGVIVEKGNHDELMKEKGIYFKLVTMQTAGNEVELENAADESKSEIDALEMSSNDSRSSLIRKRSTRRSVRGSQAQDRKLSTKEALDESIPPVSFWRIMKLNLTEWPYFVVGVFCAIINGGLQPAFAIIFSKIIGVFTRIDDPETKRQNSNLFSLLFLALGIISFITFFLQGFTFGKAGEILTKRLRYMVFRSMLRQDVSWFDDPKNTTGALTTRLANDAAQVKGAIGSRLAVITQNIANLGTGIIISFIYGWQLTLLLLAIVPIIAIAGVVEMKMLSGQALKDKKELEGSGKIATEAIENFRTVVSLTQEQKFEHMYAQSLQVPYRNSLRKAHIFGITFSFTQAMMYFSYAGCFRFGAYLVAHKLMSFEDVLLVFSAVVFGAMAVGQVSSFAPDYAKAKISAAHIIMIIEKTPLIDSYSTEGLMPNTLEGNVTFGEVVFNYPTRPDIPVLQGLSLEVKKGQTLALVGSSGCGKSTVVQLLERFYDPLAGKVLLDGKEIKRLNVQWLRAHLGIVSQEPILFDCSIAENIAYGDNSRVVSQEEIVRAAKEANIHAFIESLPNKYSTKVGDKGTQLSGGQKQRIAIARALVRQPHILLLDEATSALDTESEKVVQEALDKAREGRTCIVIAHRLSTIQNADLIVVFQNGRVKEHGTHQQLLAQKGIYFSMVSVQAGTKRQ

Activity: inhibitor [+]
Substance: BITTER MELON LEAF EXTRACT
